The results in this text go back to US20200147243A1, “LIGAND COMPOUND OF ALPHA7 NICOTINIC ACETYLCHOLINE RECEPTOR AND APPLICATION THEREOF” (BEIJING NORMAL UNIVERSITY, priority 2017, published 2020).

The target in data set [1] is T1, 5-hydroxytryptamine receptor (Mus musculus, UniProt P23979).
T1 construct: from tissue
T1 sequence (P23979 24-489): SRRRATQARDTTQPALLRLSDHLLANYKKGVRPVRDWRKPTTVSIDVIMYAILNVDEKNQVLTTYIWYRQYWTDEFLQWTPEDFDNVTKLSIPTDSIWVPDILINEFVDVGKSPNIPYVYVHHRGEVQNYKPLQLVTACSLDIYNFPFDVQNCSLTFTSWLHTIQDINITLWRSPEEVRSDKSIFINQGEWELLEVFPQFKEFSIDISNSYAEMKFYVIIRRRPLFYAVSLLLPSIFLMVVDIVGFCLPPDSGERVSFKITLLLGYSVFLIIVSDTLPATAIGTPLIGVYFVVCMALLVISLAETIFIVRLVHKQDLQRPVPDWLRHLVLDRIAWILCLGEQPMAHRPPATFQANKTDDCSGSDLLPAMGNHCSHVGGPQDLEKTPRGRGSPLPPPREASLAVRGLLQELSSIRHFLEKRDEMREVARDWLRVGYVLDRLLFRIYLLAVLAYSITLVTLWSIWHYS
As to the kind of experiment: Selective experiment in mouse brain, ondanstron pre-injection. The class given is in vivo, Kunming mice. The following applies: 2 mg/kg ondanstron s.c. 10 min in advance, 60 min after administration. As to the method:
The selectivity of radioligand for α4β2 nAChR was explored by subcutaneously injecting 1 mg/kg of cytisine (0.1 mL, with an equal volume of normal saline and 1,2-propanediol as solvents) 5 min in advance, whereas the selectivity for the 5-hydroxytryptamine receptor was explored by subcutaneously injecting 2 mg/kg of ondanstron (0.1 mL, with saline:DMSO=5:1 (V:V) as solvents) 10 min in advance. In the experiment, two groups of mice (n=5, Kunming females, 28-30 g) were injected with 0.1 mL (60 μCi) of [^18F]

The nature of data set [2]: In vitro stability experiment in fetal bovine serum and normal saline. The class given is in vitro ADME. As for the experimental part: The in vitro stability of the radioligand is of great importance for its further in vivo studies. Generally, the in vitro stability study is carried out in normal saline and animal serum. A specific method was as follows: respectively incubating 10 μCi of HPLC-purified radioligand [^18F] II-15 and 100 μL of fetal bovine serum at 37° C. for 1 h and 2 h, adding 200 μL of acetonitrile thereto after finishing the incubation to fully precipitate proteins, then centrifuging at […] for 5 min (7000 rpm), collecting supernatant, filtering the supernatant with filter membrane, and then performing HPLC analysis on 100 μL of the filtered supernatant; incubating 10 μCi of HPLC-purified radioligand [^18F] II-15 with 100 μL of normal saline at room temperature for 1 h and 2 h, respectively, and then directly analyzing by HPLC.

Consider `O=C1c2cc(N3CCN4CCC3CC4)ccc2-c2cccc([18F])c21` [[^18F] II-15], for which the “difference in brain uptake between experimental group and control group” value in data set [1] is listed as “no significant difference”. The “radiochemical purity after incubation” value in data set [2] (fetal calf serum, 37° C., 1 h) is given as “greater than 98%”; in data set [2] (fetal calf serum, 37° C., 2 h), “greater than 98%”; in data set [2] (normal saline, room temperature, 1 h), “greater than 98%”; in data set [2] (normal saline, room temperature, 2 h), “greater than 98%”.
